For series [1], the system named is CGNs. Description: MPP+-induced neurotoxicity in CGNs, MTT and LDH assays. It counts as cell-based, rat. The protocol:
All animal experiments were conducted according to the ethical guidelines of ICMS, Macau University and the Animal Care Facility, The Hong Kong Polytechnic University. Rat CGNs were prepared from 8-day-old Sprague-Dawley rats (The Animal Care Facility, The Hong Kong Polytechnic University) as described by Li et al., 2005. Briefly, neurons were seeded at a density of 2.7×10^5 cells/ml in basal modified Eagle's medium (Invitrogen) containing 10% fetal bovine serum, 25 mM KCl, 2 mM glutamine, and penicillin (100 units/ml)/streptomycin (100 μg/ml). Cytosine arabinoside (10 μM) was added to the culture medium 24 hour after plating to limit the growth of non-neuronal cells. With the use of this protocol, more than 95% of the cultured cells were granule neurons.
(§1) The percentage of surviving neurons in the presence of SU4312 and/or MPP^+ was estimated by determining the activity of mitochondrial dehydrogenases with 3(4,5-dimethylthiazol-2-yl)-2.5-diphenyltetrazolium bromide (MTT) assay (Li et al., 2007). The assay was performed according to the specifications of the manufacturer (MTT kit I; Roche Applied Science). Briefly, the neurons were cultured in 96-well plates, 10 μl of 5 mg/ml MTT labeling reagent was added to each well containing cells in 100 μl of medium, and the plates were incubated for 4 hours in a humidified incubator at 37° C. After the incubation, 100 μl of the solvating solution (0.01 N HCl in 10% SDS solution) was added to each well for 16-20 hours. Absorbance of the samples was measured at a wavelength of 570 nm with 655 nm as a reference wavelength. Unless otherwise indicated, the extent of MTT conversion in cells exposed to MPP^+ is expressed as a percentage of the control.
Cytotoxicity was determined by measuring the release of lactate dehydrogenase (LDH). Briefly, cells were precipitated by centrifugation at 500 g for 5 min at room temperature, 50 μl of the supernatants was transferred into new wells, and LDH was determined using the in vitro toxicology assay kit (Roche). The absorbance of the samples was measured at a wavelength of 490 nm with 655 nm as a reference wavelength.
Rat CGNs were prepared from 8-day-old Sprague-Dawley rats (The Animal Care Facility, The Hong Kong Polytechnic University) as described by Li et al., 2005. Briefly, neurons were seeded at a density of 2.7×10^5 cells/ml in basal modified Eagle's medium (Invitrogen) containing 10% fetal bovine serum, 25 mM KCl, 2 mM glutamine, and penicillin (100 units/ml)/streptomycin (100 μg/ml). Cytosine arabinoside (10 μM) was added to the culture medium 24 hours after plating to limit the growth of non-neuronal cells. With the use of this protocol, more than 95% of the cultured cells were granule neurons.
as §1, with “The” for “The percentage of surviving neurons in the presence of SU4312 and/or MPP^+ was estimated by determining the activity of mitochondrial dehydrogenases with 3(4,5-dimethylthiazol-2-yl)-2.5-diphenyltetrazolium bromide (MTT) assay (Li et al., 2007). The”, “incubated at 37° C.” for “incubated”, “incubator.” for “incubator at 37° C.”, “The absorbance” for “Absorbance”
A general note: Tetrazolium assays rely on reduction of a dye to a coloured formazan, in cell work by metabolically active cells.

Series [2] relates to SH-SY5Y cells. Description: MPP+-induced neurotoxicity in SH-SY5Y cells, MTT assay. Conditions: for MPP+-induced neuronal death in SH-SY5Y cells (MTT): pre-treatment 2 hours, then 1 mM MPP+ for 24 hours. It counts as cell-based, human. The protocol:
The human neuroblastoma SH-SY5Y cells were obtained from ATCC. The cells were maintained in supplemented Dulbecco's modified eagle medium (DMEM), 10% fetal bovine serum, 100 U/ml penicillin, and 100 μg/ml streptomycin in a 37° C., 5% CO2 incubator. PC12 pheochromocytoma cells were also obtained from ATCC. The cells were cultured in medium that consisted of DMEM, 10% heat-inactivated horse serum, 5% fetal bovine serum, 100 U/ml penicillin, and 100 μg/ml streptomycin in a 37° C., 5% CO2 incubator. All experiments were carried out 48 hours after the cells were seeded. […] The assay was performed according to the specifications of the manufacturer (MTT kit I; Roche Applied Science). […] After the incubation, 100 μl of the solvating solution (0.01 N HCl in 10% SDS solution) was added to each well for 16-20 hours. Absorbance of the samples was measured at a wavelength of 570 nm with 655 nm as a reference wavelength. Unless otherwise indicated, the extent of MTT conversion in cells exposed to MPP^+ is expressed as a percentage of the control.

Series [3] has as its target T1, rat cerebellum nNOS (Rattus norvegicus, UniProt P29476).
T1 construct: purchased Calbiochem
The experiment in a line: In vitro nNOS activity assay, rat cerebellum nNOS. It counts as biochemical.
Protocol: Rat cerebellum nNOS was from Calbiochem. NOS activity was determined by monitoring the conversion of L-[3H]arginine to [3H]citrulline following the instructions provided by the kit (Calbiochem). The reaction mixture contained a final volume of 40 μl with 25 mM Tris-Cl at pH 7.4, 3 μM tetrahydrobiopterin, 1 μM FAD, 1 μM FMN, 1 mM NADPH, 0.6 mM CaCl2, 0.1 μM calmodulin, 2.5 μg of pure NOS enzyme, 5 μl L-[3H]arginine (Perkin Elmer, Waltham, Mass., USA), and different concentrations of the tested reagents. The reaction mixture was incubated at 22° C. for 45 min. The reaction was quenched by adding 400 μl of stopping buffer (50 mM HEPES, pH 5.5, and 5 mM EDTA). Unreacted L-[3H]arginine was then trapped by 100 μl of equilibrated resin in a spin cup followed by centrifugation at 13,200 rpm for 30 s.

For series [4], the system named is CGNs. The experiment in a line: Low potassium-induced cell death in CGNs, MTT assay. Conditions: 5 mM KCl BME medium, 24 hours; sunitinib 0.1-2 μM. In kind it is cell-based. As for the experimental part: (§2) Cell viability was measured by MTT assay at 24 hours after low potassium challenge. […] After 24 hours of low potassium challenge, CGNs were assayed with an FDA/PI double staining. […] After 24 hours of low potassium challenge, CGNs were assayed with Hoechst staining. The number of apoptotic nuclei with condensed chromatin were counted from representative Hoechst staining photomicrographs and represented as a percentage of the total number of nuclei counted. […] Intracellular NO level was measured using DAF-FM diacetate as a probe at 4 hour after low potassium challenge. Data, expressed as percentage of control (CGNs were cultured in high potassium medium), were the mean±SEM of three separate experiments; *p<0.05 and **p<0.01 versus low potassium group in (A) and (D) or versus control in (C); ^##p<0.01 versus low potassium group in (C) (Turkey's test).
It was previously reported that low potassium could induce typical apoptosis in cerebellar granule neurons (CGNs) (Fu et al., 2008). […] Cell viability was measured with an MTT assay 24 hours after the low potassium treatment.

Series [5] concerns CGNs. Description: FDA/PI double staining of CGNs after low potassium. It counts as cell-based. Conditions: 1.5 μM, 24 hours. The protocol:
as §2
(§3) The neurons were examined by FDA/PI double staining.

Series [6] relates to CGNs. The experiment in a line: Hoechst 33342 staining of CGNs after low potassium. It counts as cell-based. Conditions: 1.5 μM, 24 hours. The protocol: as §2, §3
Series [7] concerns intracellular NO. Description: Intracellular NO in CGNs after low potassium. It counts as cell-based. Conditions: 1.5 μM, 4 hour after low potassium challenge. As for the experimental part: as §2
The test system of series [8] is intracellular NO. Description: Intracellular NO in SH-SY5Y cells after MPP+. It counts as cell-based, human. Conditions: 0.3 μM 2 hours, then 1 mM MPP+ 24 hours. The protocol: Cell viability was measured by the MTT assay at 24 hours after MPP^+ challenge. […] Intracellular NO level was measured using DAF-FM diacetate as a probe at 24 hour after MPP^+ challenge. Data, expressed as percentage of control, were the mean±SEM of three separate experiments; *p<0.05 and **p<0.01 versus MPP^+ group (ANOVA and Dunnett's test).
DAF-FM diacetate was also used to evaluate the intracellular NO level in this model.

Series [9] concerns the target T2, iNOS (Homo sapiens, UniProt P35228). Description: In vitro NOS activity assay of Example 3, iNOS. In kind it is biochemical. The conditions noted are these: 100 μM; data not shown.
The target of series [10] is eNOS (Homo sapiens, UniProt P29474). The experiment in a line: In vitro NOS activity assay of Example 3, eNOS. It counts as biochemical. The conditions noted are these: 100 μM; data not shown.
Series [11] concerns nNOS knockdown SH-SY5Y cells. Description: MPP+ in ShRNA-mediated nNOS knockdown SH-SY5Y cells. In kind it is cell-based, human. Conditions: 0.3 μM 2 hours, then 1 mM MPP+ 24 hours. The protocol: (A) SH-SY5Y cells were transfected with pG418-GFP plasmid (vector), pG418-GFP plasmid encoding nNOS ShRNA (ShnNOS) and pG418-GFP plasmid encoding negative control ShRNA (ShNC). The level of nNOS and β-actin in the cell lysates were analyzed by Western blotting assay by using specific antibodies. […] Cell viability was measured at 24 hours after MPP^+ challenge by MTT assays. Data were the mean±SEM of three separate experiments; **p<0.01 versus control; ^##p<0.01 versus MPP^+ group; ^&p<0.05 versus MPP^+ vector group (Turkey's test).

Series [12] deals with SH-SY5Y cells. Conditions: sustained (3 days) treatment, >1 μM; cited from earlier work.
The conditions of series [13]: daily oral administration; cited from earlier work.
The conditions of series [14]: cited from earlier work.
Series [15] concerns intracellular NO. Description: Intracellular NO in CGNs after MPP+ (DAF-FM diacetate). In kind it is cell-based, rat. The conditions noted are these: pre-treatment 2 hours, 35 μM MPP+, 24 hours; SU4312 3-30 μM, 7-NI 3-10 μM. As for the experimental part: (§4) Intracellular NO was monitored with 4-Amino-5-methylamino-2′,7′-difluorofluorescein (DAF-FM) diacetate, a pH-insensitive fluorescent dye that emits increased fluorescence after reaction with an active intermediate of NO formed during the spontaneous oxidation of NO to NO2 (Sheng et al., 2005). DAF-FM solution was added to the culture medium (final concentration: 5 μM). After 30 min in a CO2 incubator, cultures were washed twice with PBS and incubated for an additional 30 min to allow complete de-esterification of the intracellular diacetate for stronger fluorescence. The DAF-FM fluorescence in CGNs was quantified by a multi-detection microplate reader using excitation and emission wavelengths of 495 nm and 515 nm, respectively. The measured fluorescence values were expressed as a percentage of the fluorescence in the control cells.
as §4, with “(4-amino-5-methylamino-2′,7′-difluorofluorescein) DAF-FM” for “4-Amino-5-methylamino-2′,7′-difluorofluorescein (DAF-FM)”, “After incubation for” for “After”, “another” for “an additional”, “strong” for “stronger”

Series [16] addresses nNOS (Homo sapiens, UniProt P29475). The conditions noted are these: cited from earlier work.
In series [17] the target is T2, iNOS. The conditions noted are these: cited from earlier work.
The subject of series [18] is CGNs. Conditions: VEGF 10-300 ng/ml; cited from earlier work.

Entries after “also recorded” stand apart in the source; their conditions may differ.

For the compound `CCN(CC)CCNC(=O)c1c(C)[nH]c(/C=C2\C(=O)Nc3ccc(F)cc32)c1C` [Sunitinib, N-(2-diethylaminoethyl)-5-[(Z)-(5-fluoro-2-oxo-1H-indol-3-ylidene)methyl]-2,4-dimethyl-1H-pyrrole-3-carboxamide], the “cell proliferative or cytotoxic effects of the drug alone” value in [1] is “did not show cell proliferative or cytotoxic effects”. Besides, in series [2], the “cell proliferative or cytotoxic effects of the drug alone, SH-SY5Y cells” value was “did not show cell proliferative or cytotoxic effects” and the “MPP+-induced neuronal death in SH-SY5Y cells (MTT)” value is “prevented MPP^+-induced neuronal death at 0.1-0.3 μM”. For the same compound, in series [2] (higher concentration (sunitinib 1 μM), data not shown), the “toxicity to SH-SY5Y cells at higher concentration” value was “at higher concentration (1 μM) showed toxicity to SH-SY5Y cells”. This compound returned an IC50 in series [3] of 9.6 µM. The “low potassium-induced cell death (MTT)” value in series [4] is “unexpectedly prevented low potassium-induced cell death in CGNs in a concentration-dependent manner”. Besides, the “loss of neurons and morphological alteration induced by low potassium (FDA/PI)” value in [5] was “significantly blocked the loss of neurons and reversed the morphological alteration”. Besides, in [6], the “neuronal apoptosis induced by low potassium (Hoechst 33342)” value is on record as “significantly reversed neuronal apoptosis induced by low potassium”. In series [7], the “low potassium-stimulated NO production” value is given as “antagonized the stimulatory effect of low potassium on the NO production”. Further, in [8], the “MPP+-triggered elevation of intracellular NO level in SH-SY5Y cells” value is listed as “attenuated MPP^+-triggered elevation of intracellular NO level”. The “inhibitory activity against iNOS” value in [9] is “showed no inhibitory activity against iNOS or eNOS”. In addition, the “inhibitory activity against eNOS” value in [10] is reported as “showed no inhibitory activity against iNOS or eNOS”. For the same compound, in series [11], the “MPP+-induced cell death in nNOS knockdown SH-SY5Y cells (MTT)” value is recorded as “did not significantly inhibit MPP^+-induced cell death”. The “proliferation of SH-SY5Y cells (previous studies)” value in series [12] was “could reduce the proliferation of SH-SY5Y cells”. For the same compound, the “human plasma steady-state level” value in series [13] is 50 to 100 ng/mL. In addition, the “sunitinib still accumulated in the brain” value in series [14] (60 min following administration) was 25%. Moreover, the “sunitinib retained in the brain” value in series [14] (6 hour after oral administration) was 60 ng/mL.
As for `O=[N+]([O-])c1cccc2cn[nH]c12` [7-nitroindazole], in series [1] (pre-treatment 2 hours, then 35 μM MPP+ for 24 hours), the “MPP+-induced cell death (cell viability, MTT and LDH assays)” value was “inhibited neuronal death; also recorded: protected against neuronal apoptosis”. In [2], the “MPP+-induced neuronal death in SH-SY5Y cells (MTT)” value was “at 5-10 μM prevented MPP^+-induced neuronal death”. In series [15], the “MPP+-induced elevation of intracellular NO level” value was “inhibited neuronal death and elevated level of intracellular NO induced by MPP^+”. Besides, the values for the IC50 in series [16] and in [17] were 0.7 µM and 20 µM, respectively.
In the case of VEGF, the “MPP+-induced neurotoxicity in CGNs (earlier study)” value in series [18] is “protected neurons against MPP^+-induced neurotoxicity”.

What is called IC50 is the concentration that gives 50% inhibition.
